target: POLRMT (Homo sapiens (Human), UniProt O00411); assay: POLRMT homogeneous TR-FRET mitochondrial transcription assay; assay type: biochemical; conditions: inhibition of POLRMT; TR-FRET detection of 407 bp RNA transcript; 7.5 nM POLRMT, 15 nM TFB2M, 30 nM TFAM, 60 minutes at 37° C.
Experimental: The inhibitory activity of the compounds of the present invention against POLRMT were determined by assays based on Bergbrede, T., et al., “An adaptable high-throughput technology enabling the identification of specific transcription modulators,” SLAC Discov., 22, 378-386 (2017).
The ability of some compounds of the present invention to inhibit POLRMT were determined in a homogeneous TR-FRET Assay using high-throughput screening in a 384-well plate format. This method is used to monitor the activity of mitochondrial transcription through measurement of its product, a 407 bp long RNA transcript. Detection of the product is facilitated by hybridization of two DNA-oligonucleotide probes to specific and adjacent sequences within the RNA product sequence. Upon annealing of the probes, two fluorophores are coupled directly to an acceptor nucleotide probe (ATTO647, 5′), or introduced via a coupled streptavidin with a biotinylated donor nucleotide probe (Europium cryptate) that is brought into sufficient proximity to serve as a fluorescence-donor-acceptor pair. Thus, a FRET signal at 665 nm is generated upon excitation at 340 nm.
Proteins used as transcription factors (POLRMT: NP_005026.3, TFAM: NP_003192.1, TFB2M: NP_071761.1) are diluted from their stocks to working concentrations of 1 μM, 20 μM and 4 μM respectively, in a dilution buffer containing 20 mM Tris-HCl (pH 8.0), 200 mM NaCl, 10% (v/v) glycerol, 1 mM Dithiothreitol (DTT), 0.5 mM EDTA.
DNA template is a pUC18 plasmid with the mitochondrial light strand promotor sequence (1-477) cloned between HindIII and BamHI sites. The DNA template is restriction linearized proximal to the promotor 3′-end (pUC-LSP).
The reaction mixture (10 uL) containing 7.5 nM POLRMT, 15 nM of TFB2M, 30 nM of TFAM, 0.5 nM of DNA template and 500 μM nucleotide triphosphate mix (NTPs) in a reaction buffer (containing 10 mM Tris-HCl (pH 7.5), 10 mM MgCl2, 40 mM NaCl, 10 mM DTT, 0.005% (w/v) Tween-20, 160 units/ml Rnase inhibitor and 0.1 mg/mL BSA) are dispensed to compounds in microplates, using a Thermo Multidrop® dispenser, and incubated at 37° C. in a VWR INCU-Line incubator for 60 minutes after mixing. No nucleotide triphosphate mix is added to negative control samples. Microplates with compounds to be tested in the assay are prepared from 10 mM compound stocks in 100% DMSO, equal amounts of DMSO without any compound are added to positive control and negative control samples.
During the incubation, a mix of the detection reagents is prepared in a buffer such that the enzymatic reaction is terminated due to chelating of Mg-ions and increased ionic strength, containing 50 mM Tris-HCl (pH 7.5), 700 mM NaCl, 20 mM EDTA, and 0.01% (w/v) Tween-20. Europium-streptavidin is pre-incubated with a 200-fold molar excess of a random sequence oligonucleotide to block unspecific binding of oligo, for two hours at ambient temperature in the dark. Afterwards, the blocked Europium-streptavidin is kept on ice until use.
At the end of the enzymatic reaction time, 5 μL detection oligo mix in the detection buffer is added, and assay plates are mixed and kept at ambient temperature for one hour, protected from light. The concentration of the Acceptor nucleotide oligo (e.g., ATTO647N-5′-[…]-3′) and Donor nucleotide oligo (e.g., bio-5′-AACACATCTCT(-bio)GCCAAACCCCA-bio-3′) in each assay well is 1 nM, and 3 nM, respectively.
After incubation with oligo mix, 5 μL of pre-blocked Europium-streptavidin reagent is dispensed to each assay well, assay plates are again mixed and kept at ambient temperature for one hour, protected from light.
The generated signal is measured with BMG Pherastar microtiter plate reader with a TRF light unit, using excitation at 340 nm, an integration time of 200 μs, and a delay time of 100 μs, before detection at 620 nm and 665 nm. The ratio of donor- and acceptor-fluorescence is used as a measure of the generated transcript product (i.e. enzymatic activity).

POLRMT, sequence (O00411 42-1230): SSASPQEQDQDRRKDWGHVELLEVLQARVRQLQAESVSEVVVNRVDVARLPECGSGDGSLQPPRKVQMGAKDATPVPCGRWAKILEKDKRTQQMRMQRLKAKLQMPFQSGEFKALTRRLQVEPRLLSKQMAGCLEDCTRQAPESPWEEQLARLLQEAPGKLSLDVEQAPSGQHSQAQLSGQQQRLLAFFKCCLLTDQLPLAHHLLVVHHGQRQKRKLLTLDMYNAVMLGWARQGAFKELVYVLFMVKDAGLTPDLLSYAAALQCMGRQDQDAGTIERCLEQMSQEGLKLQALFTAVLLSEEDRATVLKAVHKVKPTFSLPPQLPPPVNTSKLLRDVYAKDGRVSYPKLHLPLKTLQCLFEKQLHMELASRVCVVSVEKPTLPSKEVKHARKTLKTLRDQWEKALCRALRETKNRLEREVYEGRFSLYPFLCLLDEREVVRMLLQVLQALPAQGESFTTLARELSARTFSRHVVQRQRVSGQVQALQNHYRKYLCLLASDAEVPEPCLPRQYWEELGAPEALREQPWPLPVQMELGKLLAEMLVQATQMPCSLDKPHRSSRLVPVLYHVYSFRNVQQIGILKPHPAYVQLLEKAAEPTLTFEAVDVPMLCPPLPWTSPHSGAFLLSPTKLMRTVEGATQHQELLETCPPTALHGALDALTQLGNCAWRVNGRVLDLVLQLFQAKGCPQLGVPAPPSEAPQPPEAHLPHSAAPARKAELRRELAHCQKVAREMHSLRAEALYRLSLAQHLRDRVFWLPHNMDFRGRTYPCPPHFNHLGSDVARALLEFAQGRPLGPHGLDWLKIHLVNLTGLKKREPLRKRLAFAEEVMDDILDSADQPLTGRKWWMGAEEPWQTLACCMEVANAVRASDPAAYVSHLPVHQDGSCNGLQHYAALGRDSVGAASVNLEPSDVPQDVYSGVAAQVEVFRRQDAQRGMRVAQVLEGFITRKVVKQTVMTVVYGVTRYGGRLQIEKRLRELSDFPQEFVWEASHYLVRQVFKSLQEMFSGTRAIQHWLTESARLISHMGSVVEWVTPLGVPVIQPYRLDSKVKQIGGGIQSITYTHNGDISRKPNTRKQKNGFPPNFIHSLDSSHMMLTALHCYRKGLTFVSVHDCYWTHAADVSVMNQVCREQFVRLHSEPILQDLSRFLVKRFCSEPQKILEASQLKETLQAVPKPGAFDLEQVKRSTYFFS

| IC50 [nM] | Compound |
| --- | --- |
| 1000 | COCC1CCN(c2ccc3c(-c4ccccc4C)cc(=O)oc3n2)C1 (single isomer, unassigned) [Example 32, 7-(3-(methoxymethyl)pyrrolidin-1-yl)-4-(o-tolyl)-2H-pyrano[2,3-b]pyridin-2-one] |
| 7000 | Cc1ccccc1-c1cc(=O)oc2nc(N3CCC(C(=O)O)C3)ccc12 (single isomer, unassigned) [Example 33, 1-(2-oxo-4-(o-tolyl)-2H-pyrano[2,3-b]pyridin-7-yl)pyrrolidine-3-carboxylic acid] |
| 20000 | Cc1ccccc1-c1cc(=O)oc2nc(N3CCC(C(=O)O)C3)ccc12 (single isomer, unassigned) [Example 34, 1-(2-oxo-4-(o-tolyl)-2H-pyrano[2,3-b]pyridin-7-yl)pyrrolidine-3-carboxylic acid] |
| 200 | Cc1ccccc1-c1cc(=O)oc2nc(N3CCCC3C(=O)O)ccc12 (single isomer, unassigned) [Example 37, 1-(2-oxo-4-(o-tolyl)-2H-pyrano[2,3-b]pyridin-7-yl)pyrrolidine-2-carboxylic acid] |
| 1000 | Cc1ccccc1-c1cc(=O)oc2nc(N3CCCC3C(=O)O)ccc12 (single isomer, unassigned) [Example 38, 1-(2-oxo-4-(o-tolyl)-2H-pyrano[2,3-b]pyridin-7-yl)pyrrolidine-2-carboxylic acid] |
| 500 | Cc1ccccc1-c1cc(=O)oc2nc(N(C)C(C)C(N)=O)ccc12 (single isomer, unassigned) [Example 48, 2-(methyl(2-oxo-4-(o-tolyl)-2H-pyrano[2,3-b]pyridin-7-yl)amino)propanamide] |
| 1000 | Cc1ccccc1-c1cc(=O)oc2nc(N(C)C(C)C(N)=O)ccc12 (single isomer, unassigned) [Example 49, 2-(methyl(2-oxo-4-(o-tolyl)-2H-pyrano[2,3-b]pyridin-7-yl)amino)propanamide] |
| 1000 | Cc1ccccc1-c1cc(=O)oc2nc(N(C)C)ccc12 [Example 01, 7-(dimethylamino)-4-(o-tolyl)-2H-pyrano[2,3-b]pyridin-2-one] |
| 2000 | Cc1ccccc1-c1cc(=O)oc2nc(N3CCOCC3)ccc12 [Example 02, 7-morpholino-4-(o-tolyl)-2H-pyrano[2,3-b]pyridin-2-one] |
| 200 | Cc1ccccc1-c1cc(=O)oc2nc(N3CCCC3)ccc12 [Example 03, 7-(pyrrolidin-1-yl)-4-(o-tolyl)-2H-pyrano[2,3-b]pyridin-2-one] |
| 2000 | COCCN(C)c1ccc2c(-c3ccccc3C)cc(=O)oc2n1 [Example 04, 7-((2-methoxyethyl)(methyl)amino)-4-(o-tolyl)-2H-pyrano[2,3-b]pyridin-2-one] |
| 400 | CCN(C)c1ccc2c(-c3ccccc3C)cc(=O)oc2n1 [Example 05, 7-(ethyl(methyl)amino)-4-(o-tolyl)-2H-pyrano[2,3-b]pyridin-2-one] |
| > 100000 | CC(=O)N1CCN(c2ccc3c(-c4ccccc4C)cc(=O)oc3n2)CC1 [Example 06, 7-(4-acetylpiperazin-1-yl)-4-(o-tolyl)-2H-pyrano[2,3-b]pyridin-2-one] |
| 18000 | Cc1ccccc1-c1cc(=O)oc2nc(N3CCC(N(C)C)C3)ccc12 (centres unmarked) [Example 08, 7-[3-(dimethylamino)pyrrolidin-1-yl]-4-(o-tolyl)pyrano[2,3-b]pyridin-2-one] |
| > 100000 | Cc1ccccc1-c1cc(=O)oc2nc(N3CCN(C)CC3)ccc12 [Example 09, 7-(4-methylpiperazin-1-yl)-4-(o-tolyl)pyrano[2,3-b]pyridin-2-one] |
| 86000 | Cc1ccccc1-c1cc(=O)oc2nc(N3CC4(COC4)C3)ccc12 [Example 10, 7-(2-oxa-6-azaspiro[3.3]heptan-6-yl)-4-(o-tolyl)-2H-pyrano[2,3-b]pyridin-2-one] |
| 47000 | Cc1ccccc1-c1cc(=O)oc2nc(N3CCN(C)C(=O)C3)ccc12 [Example 11, 7-(4-methyl-3-oxopiperazin-1-yl)-4-(o-tolyl)-2H-pyrano[2,3-b]pyridin-2-one] |

Reference: patent US20250066377A1, “AMINO CHROMEN-2-ONE MODULATORS OF POLRMT” (Pretzel Therapeutics, Inc., priority 2021, published 2025)
